Reference: the NIST ThermoML archive (doi:10.1021/acs.jced.7b00578)
Values joined by “and” are separate entries in the source; they are usually repeats but may differ in a detail not shown here. Equal values may be shown once.

How the values were obtained:
[1] = Liquid, Closed cell (Static) method
[2] = molar heat capacity at constant pressure; details: 101.33 kPa, Liquid, Extra sensitive DSC

CC1COC(=O)O1 (stereo unspecified) [4-methyl-1,3-dioxolan-2-one]
Details	molar heat capacity at constant pressure [J/K/mol]	vapor or sublimation pressure
[1], 278.19 K	–	0.00132 kPa
[1], 278.37 K	–	0.00133 kPa
[1], 278.39 K	–	0.00133 kPa
[1], 283.31 K	–	0.00214 kPa
[1], 283.32 K	–	0.00214 kPa
[1], 288.19 K	–	0.00332 kPa
[1], 288.2 K	–	0.00333 kPa
[1], 288.22 K	–	0.00332 kPa
[1], 293.12 K	–	0.00511 kPa
[1], 293.14 K	–	0.00512 kPa
[1], 293.15 K	–	0.00514 kPa and 0.00511 kPa
[1], 298.1 K	–	0.00778 kPa
[1], 298.11 K	–	0.00778 kPa
[1], 298.12 K	–	0.00777 kPa
[1], 303.01 K	–	0.01158 kPa and 0.01155 kPa
[1], 303.03 K	–	0.01156 kPa
[1], 307.94 K	–	0.01701 kPa and 0.01698 kPa
[1], 307.95 K	–	0.01694 kPa and 0.01696 kPa
[1], 312.97 K	–	0.0247 kPa and 0.02472 kPa
[1], 312.98 K	–	0.02474 kPa
[1], 312.99 K	–	0.02479 kPa
[1], 317.91 K	–	0.03529 kPa
[1], 317.92 K	–	0.0353 kPa and 0.03533 kPa and 0.03536 kPa
[1], 322.9 K	–	0.04993 kPa
[1], 322.92 K	–	0.04996 kPa and 0.05002 kPa and 0.05 kPa
[1], 327.8 K	–	0.06936 kPa
[1], 327.81 K	–	0.06935 kPa and 0.06932 kPa and 0.06938 kPa
[1], 332.89 K	–	0.09634 kPa and 0.09635 kPa
[1], 332.91 K	–	0.09643 kPa
[1], 332.92 K	–	0.09645 kPa
[1], 337.83 K	–	0.1311 kPa
[1], 337.84 K	–	0.1311 kPa and 0.1312 kPa
[1], 337.85 K	–	0.1312 kPa
[1], 342.82 K	–	0.177 kPa
[1], 342.83 K	–	0.1772 kPa
[1], 342.84 K	–	0.1773 kPa and 0.1772 kPa
[1], 347.69 K	–	0.2353 kPa
[1], 347.7 K	–	0.2354 kPa
[1], 352.55 K	–	0.3096 kPa
[1], 352.58 K	–	0.3102 kPa
[1], 352.59 K	–	0.3103 kPa
[1], 357.59 K	–	0.4078 kPa
[1], 357.6 K	–	0.4079 kPa
[1], 362.51 K	–	0.529 kPa
[1], 362.53 K	–	0.5293 kPa and 0.5294 kPa and 0.5295 kPa
[2], 262.22 K	162.94	–
[2], 265 K	163.34	–
[2], 270 K	164.16	–
[2], 275 K	164.98	–
[2], 280 K	165.79	–
[2], 285 K	166.61	–
[2], 290 K	167.53	–
[2], 295 K	168.45	–
[2], 300 K	169.37	–
[2], 305 K	170.29	–
[2], 310 K	171.2	–
[2], 315 K	172.23	–
[2], 320 K	173.14	–
[2], 325 K	174.17	–
[2], 330 K	175.19	–
[2], 335 K	176.11	–
[2], 340 K	177.13	–
[2], 345 K	178.15	–
[2], 350 K	179.17	–
[2], 355 K	180.09	–
[2], 357.99 K	180.7	–
